According to patent US20100267561A1, “HERBICIDAL PYRIDAZINONE DERIVATIVES” (priority 2007, published 2010):

Columns and labels:
Format in all cases: in vivo
[1] = system: Russian thistle (Salsola iberica); test: Test B pre-/postemergence plant response; conditions: Preemergence; for Russian Thistle plant response rating: 8 g ai/ha
In short: (§1)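 Preemergence and postemergence (plants 2-18 cm, 1- to 4-leaf stage) applications used test chemicals in a non-phytotoxic solvent with surfactant. Plants were held in a greenhouse 13 to 15 days, then rated visually against controls on a 0-100 scale (0 no effect, 100 complete control).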

corn (Zea mays) = test: Test B pre-/postemergence plant response; conditions: for Corn plant response rating: 8 g ai/ha
In short: as §1

[2] = system: downy bromegrass (Bromus tectorum); test: Test B pre-/postemergence plant response; conditions: for Bromegrass, Downy plant response rating: 8 g ai/ha
In short: as §1

[3] = system: eastern black (E.B.) nightshade (Solanum ptycanthum); test: Test B pre-/postemergence plant response; conditions: Preemergence; for Nightshade, E. B. plant response rating: 8 g ai/ha
In short: as §1

[4] = system: giant foxtail (Setaria faberii); test: Test B pre-/postemergence plant response; conditions: for Foxtail, Giant plant response rating: 8 g ai/ha
In short: as §1

[5] = system: green foxtail (Setaria viridis); test: Test B pre-/postemergence plant response; conditions: for Foxtail, Green plant response rating: 8 g ai/ha
In short: as §1

[6] = system: large crabgrass (Digitaria sanguinalis); test: Test B pre-/postemergence plant response; conditions: for Crabgrass, Large plant response rating: 8 g ai/ha
In short: as §1

[7] = system: pigweed (Amaranthus retroflexus); test: Test B pre-/postemergence plant response; conditions: for Pigweed plant response rating: 8 g ai/ha
In short: as §1

wild oat (Avena fatua) = test: Test B pre-/postemergence plant response; conditions: for Oat, Wild plant response rating: 8 g ai/ha
In short: as §1

[8] = system: woolly cupgrass (Eriochloa villosa); test: Test B pre-/postemergence plant response; conditions: for Cupgrass, Woolly plant response rating: 8 g ai/ha
In short: as §1

[9] = system: barnyardgrass (Echinochloa crus-galli); test: Test B flooded paddy test plant response
In short: (§2)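 Rice, umbrella sedge, ducksalad and barnyardgrass at 2-leaf stage; pots flooded to 3 cm, compounds applied into paddy water, depth held throughout. Greenhouse 13 to 15 days, then visual rating vs untreated controls on 0–100 scale (0 no effect, 100 complete control); dash means no test result.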

[10] = system: ducksalad (Heteranthera limosa); test: Test B flooded paddy test plant response
In short: as §2

rice (Oryza sativa) = test: Test B flooded paddy test plant response
In short: as §2

[11] = system: umbrella sedge (Cyperus difformis); test: Test B flooded paddy test plant response
In short: as §2

[12] = 16 g ai/ha, scale 0 to 100 (0 no effect, 100 complete control)
[13] = 31 g ai/ha, 0 to 100 scale, 0 no effect, 100 complete control
[14] = Postemergence, 16 g ai/ha, scale 0 to 100
[15] = Postemergence, 31 g ai/ha, scale 0 to 100, 0 no effect, 100 complete control
[16] = Postemergence, 62 g ai/ha, scale 0 to 100
[17] = Preemergence, 16 g ai/ha, scale 0 to 100 (0 no effect, 100 complete control)
[18] = Preemergence, 31 g ai/ha, 0 to 100 scale, 0 no effect, 100 complete control
[19] = Preemergence, 62 g ai/ha, scale 0 to 100
[20] = Flood (flooded paddy test), 62 g ai/ha, scale 0 to 100, 0 no effect, 100 complete control
[21] = Flood (flooded paddy test), 125 g ai/ha, scale 0 to 100, 0 no effect, 100 complete control
[22] = Flood (flooded paddy test), 250 g ai/ha, scale 0 to 100, 0 no effect, 100 complete control
[23] = Flood, 31 g ai/ha, scale 0 to 100

CCc1cc(-c2ccc(C(F)(F)F)cc2)nn1-c1c(OS(C)(=O)=O)cnn(C)c1=O [Compound 19]
80: Crabgrass, Large plant response rating ([6]; postemergence, 0-100 scale)
98: Plant response rating, Corn (corn (Zea mays); [19]) | Plant response rating, Oat, Wild (wild oat (Avena fatua); [14]) | Plant response rating, Cupgrass, Woolly [8, 18]
0: Plant response rating, Russian Thistle [1, 12] | Plant response rating, Russian Thistle [1, 13] | Russian Thistle plant response rating ([1]; scale 0 to 100) | Corn plant response rating (corn (Zea mays); postemergence, 0-100 scale) | Plant response rating, Corn (corn (Zea mays); [14]) | Plant response rating, Corn (corn (Zea mays); [15]) | Plant response rating, Bromegrass, Downy [2, 17] | Bromegrass, Downy plant response rating ([2]; Preemergence, scale 0 to 100) | Plant response rating, Nightshade, E. B. [3, 12] | Plant response rating, Nightshade, E. B. ([3]; 62 g ai/ha, scale 0 to 100) | Nightshade, E. B. plant response rating ([3]; scale 0 to 100) | Pigweed plant response rating ([7]; postemergence, 0-100 scale) | Plant response rating, Pigweed [7, 14] | Plant response rating, Pigweed [7, 15] | Plant response rating, Pigweed [7, 16] | Plant response rating, Pigweed [7, 17] | Plant response rating, Pigweed [7, 18] | Plant response rating, Pigweed [7, 19] | Pigweed plant response rating ([7]; Preemergence, scale 0 to 100) | Plant response rating, Barnyardgrass [9, 23] | Plant response rating, Ducksalad [10, 20] | Plant response rating, Ducksalad [10, 21] | Plant response rating, Ducksalad [10, 23] | Plant response rating, Rice (rice (Oryza sativa); [23]) | Plant response rating, Sedge, Umbrella [11, 23]
50: Crabgrass, Large plant response rating ([6]; Preemergence, scale 0 to 100) | Cupgrass, Woolly plant response rating ([8]; Preemergence, scale 0 to 100)
75: Plant response rating, Bromegrass, Downy [2, 14] | Plant response rating, Bromegrass, Downy [2, 15] | Plant response rating, Oat, Wild (wild oat (Avena fatua); [17]) | Plant response rating, Barnyardgrass [9, 22]
100: Plant response rating, Foxtail, Giant [4, 14] | Plant response rating, Foxtail, Giant [4, 15] | Plant response rating, Foxtail, Giant [4, 16] | Plant response rating, Foxtail, Giant [4, 17] | Plant response rating, Foxtail, Giant [4, 18] | Plant response rating, Foxtail, Giant [4, 19] | Plant response rating, Foxtail, Green [5, 14] | Plant response rating, Foxtail, Green [5, 15] | Plant response rating, Foxtail, Green [5, 16] | Plant response rating, Foxtail, Green [5, 17] | Plant response rating, Foxtail, Green [5, 18] | Plant response rating, Foxtail, Green [5, 19] | Plant response rating, Crabgrass, Large [6, 16] | Plant response rating, Crabgrass, Large [6, 17] | Plant response rating, Crabgrass, Large [6, 18] | Plant response rating, Crabgrass, Large [6, 19] | Plant response rating, Oat, Wild (wild oat (Avena fatua); [15]) | Plant response rating, Oat, Wild (wild oat (Avena fatua); [16]) | Plant response rating, Cupgrass, Woolly [8, 15] | Plant response rating, Cupgrass, Woolly [8, 16] | Plant response rating, Cupgrass, Woolly [8, 19]
25: Plant response rating, Ducksalad [10, 22]
20: Plant response rating, Rice (rice (Oryza sativa); [20])
70: Corn plant response rating (corn (Zea mays); Preemergence, scale 0 to 100) | Foxtail, Giant plant response rating ([4]; Preemergence, scale 0 to 100) | Plant response rating, Rice (rice (Oryza sativa); [22]) | Plant response rating, Sedge, Umbrella [11, 22]
90: Plant response rating, Bromegrass, Downy [2, 16] | Oat, Wild plant response rating (wild oat (Avena fatua); postemergence, 0-100 scale) | Cupgrass, Woolly plant response rating ([8]; postemergence, 0-100 scale) | Plant response rating, Cupgrass, Woolly [8, 14]
85: Plant response rating, Corn (corn (Zea mays); [17]) | Foxtail, Green plant response rating ([5]; Preemergence, scale 0 to 100) | Plant response rating, Crabgrass, Large [6, 14] | Plant response rating, Cupgrass, Woolly [8, 17]
60: Plant response rating, Bromegrass, Downy [2, 19] | Foxtail, Green plant response rating ([5]; postemergence, 0-100 scale) | Oat, Wild plant response rating (wild oat (Avena fatua); Preemergence, scale 0 to 100) | Plant response rating, Barnyardgrass [9, 21] | Plant response rating, Rice (rice (Oryza sativa); [21]) | Plant response rating, Sedge, Umbrella [11, 21]
30: Plant response rating, Bromegrass, Downy [2, 18] | Plant response rating, Barnyardgrass [9, 20] | Plant response rating, Sedge, Umbrella [11, 20]
10: Bromegrass, Downy plant response rating ([2]; postemergence, 0-100 scale)
95: Plant response rating, Corn (corn (Zea mays); [16]) | Plant response rating, Corn (corn (Zea mays); [18]) | Foxtail, Giant plant response rating ([4]; postemergence, 0-100 scale) | Plant response rating, Crabgrass, Large [6, 15] | Plant response rating, Oat, Wild (wild oat (Avena fatua); [18]) | Plant response rating, Oat, Wild (wild oat (Avena fatua); [19])

CCc1cc(-c2ccc(F)cc2)nn1-c1c(O)cnn(C)c1=O [Compound 25]
80: Plant response rating, Foxtail, Green [5, 15] | Plant response rating, Crabgrass, Large [6, 16] | Plant response rating, Crabgrass, Large [6, 19] | Plant response rating, Pigweed [7, 19] | Plant response rating, Cupgrass, Woolly [8, 14] | Plant response rating, Cupgrass, Woolly [8, 18] | Plant response rating, Cupgrass, Woolly [8, 19]
20: Plant response rating, Crabgrass, Large [6, 17]
25: Oat, Wild plant response rating (wild oat (Avena fatua); postemergence, 0-100 scale)
85: Plant response rating, Foxtail, Giant [4, 14] | Plant response rating, Foxtail, Giant [4, 15] | Plant response rating, Cupgrass, Woolly [8, 15]
95: Plant response rating, Corn (corn (Zea mays); [15]) | Plant response rating, Foxtail, Giant [4, 16] | Plant response rating, Oat, Wild (wild oat (Avena fatua); [16])
15: Plant response rating, Bromegrass, Downy [2, 16]
60: Plant response rating, Foxtail, Giant [4, 17] | Plant response rating, Crabgrass, Large [6, 14] | Plant response rating, Crabgrass, Large [6, 18] | Plant response rating, Oat, Wild (wild oat (Avena fatua); [19]) | Cupgrass, Woolly plant response rating ([8]; postemergence, 0-100 scale)
90: Plant response rating, Foxtail, Giant [4, 18]
50: Plant response rating, Corn (corn (Zea mays); [14]) | Plant response rating, Corn (corn (Zea mays); [18]) | Foxtail, Giant plant response rating ([4]; Preemergence, scale 0 to 100) | Foxtail, Green plant response rating ([5]; Preemergence, scale 0 to 100)
100: Plant response rating, Foxtail, Giant [4, 19] | Plant response rating, Cupgrass, Woolly [8, 16]
5: Plant response rating, Corn (corn (Zea mays); [17]) | Crabgrass, Large plant response rating ([6]; postemergence, 0-100 scale)
55: Foxtail, Green plant response rating ([5]; postemergence, 0-100 scale) | Plant response rating, Oat, Wild (wild oat (Avena fatua); [14])
0: Plant response rating, Russian Thistle [1, 12] | Plant response rating, Russian Thistle [1, 13] | Plant response rating, Russian Thistle ([1]; 62 g ai/ha, scale 0 to 100) | Russian Thistle plant response rating ([1]; scale 0 to 100) | Corn plant response rating (corn (Zea mays); postemergence, 0-100 scale) | Corn plant response rating (corn (Zea mays); Preemergence, scale 0 to 100) | Bromegrass, Downy plant response rating ([2]; postemergence, 0-100 scale) | Plant response rating, Bromegrass, Downy [2, 14] | Plant response rating, Bromegrass, Downy [2, 17] | Plant response rating, Bromegrass, Downy [2, 18] | Plant response rating, Bromegrass, Downy [2, 19] | Bromegrass, Downy plant response rating ([2]; Preemergence, scale 0 to 100) | Plant response rating, Nightshade, E. B. [3, 12] | Plant response rating, Nightshade, E. B. [3, 13] | Plant response rating, Nightshade, E. B. ([3]; 62 g ai/ha, scale 0 to 100) | Nightshade, E. B. plant response rating ([3]; scale 0 to 100) | Crabgrass, Large plant response rating ([6]; Preemergence, scale 0 to 100) | Pigweed plant response rating ([7]; postemergence, 0-100 scale) | Plant response rating, Pigweed [7, 14] | Plant response rating, Pigweed [7, 15] | Plant response rating, Pigweed [7, 17] | Plant response rating, Pigweed [7, 18] | Pigweed plant response rating ([7]; Preemergence, scale 0 to 100) | Plant response rating, Oat, Wild (wild oat (Avena fatua); [17]) | Plant response rating, Oat, Wild (wild oat (Avena fatua); [18]) | Oat, Wild plant response rating (wild oat (Avena fatua); Preemergence, scale 0 to 100) | Cupgrass, Woolly plant response rating ([8]; Preemergence, scale 0 to 100) | Plant response rating, Barnyardgrass [9, 20] | Plant response rating, Barnyardgrass [9, 22] | Plant response rating, Ducksalad [10, 20] | Plant response rating, Ducksalad [10, 22] | Plant response rating, Rice (rice (Oryza sativa); [20]) | Plant response rating, Rice (rice (Oryza sativa); [22]) | Plant response rating, Sedge, Umbrella [11, 20] | Plant response rating, Sedge, Umbrella [11, 22]
75: Plant response rating, Corn (corn (Zea mays); [19]) | Plant response rating, Crabgrass, Large [6, 15]
10: Plant response rating, Bromegrass, Downy [2, 15] | Plant response rating, Pigweed [7, 16]
70: Foxtail, Giant plant response rating ([4]; postemergence, 0-100 scale) | Plant response rating, Foxtail, Green [5, 14] | Plant response rating, Oat, Wild (wild oat (Avena fatua); [15])
40: Plant response rating, Cupgrass, Woolly [8, 17]
98: Plant response rating, Foxtail, Green [5, 16] | Plant response rating, Foxtail, Green [5, 17] | Plant response rating, Foxtail, Green [5, 18] | Plant response rating, Foxtail, Green [5, 19]
